Experimental data as given in patent US20200390128A1 (Lennham Pharmaceuticals, Inc., priority 2019, published 2020).
Where two headings read alike, the source gives them in different places.

What was measured:
[1] = Plasma pharmacokinetics after a single oral (gavage) dose in fasted male Sprague-Dawley rats, LC-MS/MS; settings: for Concentration in plasma, Mean: fasted male Sprague-Dawley rats, n = 3/time point; for measurable plasma concentrations: after 2 mg/kg oral; for AUClast / T 1/2 (terminal half life): fasted male Sprague Dawley rats;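 on all read-outs here: plasma from heparinized blood sampled up to 14 h post dose, three rats per timepoint, parameters by non-compartmental analysis of mean concentration-time data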
Experimental: (§1) Serial blood samples were collected from three animals per group per timepoint prior to dosing and at 0.25, 0.5, 1, 2, 3 4, 6, 8, 10, 12, and 14-hours post dose.
(§2) Animals were fasted overnight prior to dose administration. Water was provided ad libitum. Food was returned after the collection of the 4-hour samples.
(§3) Doses (rounded to the nearest 0.001 mL) were calculated based on the pretreatment body weight (kg) and a dose volume of 10 mL/kg.
(§4) Serial blood samples (˜300 μL) were collected from three animals per group per timepoint into tubes containing sodium heparin prior to dosing and at 0.25, 0.5, 1, 2, 3, 4, 6, 8, 10, 12, and 14-hours post dose. […] Blood samples were stored on wet ice until being processed for plasma via centrifugation (3500 g for 10 minutes at 5° C.) within 30 minutes of collection.
(§5) The concentration-time data were analyzed to fit an extra-vascular (oral gavage) dosing plasma analysis model (200) using the software WinNonlin Phoenix version 6.3 (Pharsight).
(§6) Half-lives are reported if the correlation for the regression line, as measured by r squared, is ≥0.9, when rounded.

in vivo = settings: male, Sprague-Dawley, rat, plasma, po, 2 mg/kg
Experimental: as §1, §2, §3, §4, §5, §6

[2] = Brain concentrations and brain pharmacokinetics after a single oral (gavage) dose in fasted male Sprague-Dawley rats, LC-MS/MS; format: in vivo; settings: for measurable brain concentrations: after 2 mg/kg oral; for concentration at 1 h: 1 hour post dose; for concentration at 4 h: 4 hour post dose; for concentration at 14 h: 14 hour post dose
Experimental: Water was provided ad libitum.
Immediately after the 1, 4, 8 and 14-hour blood collections, three animals/group were euthanized and the brain was dissected out of each rat. The brains were rinsed with saline and dried, placed in pre-weighed conical tubes, and flash frozen in liquid nitrogen. Brain weights were calculated for each sample.

[3] = plasma, molecular weight corrected (caffeine values multiplied by 0.956), oral gavage 2 mg/kg, rats
[4] = male, Sprague-Dawley, rat, brain, po, 2 mg/kg, oral gavage 2 mg/kg, fasted male Sprague-Dawley rats, n = 3/time point
[5] = male, Sprague-Dawley, rat, brain, po, 2 mg/kg, brain, molecular weight corrected (caffeine values multiplied by 0.956), oral gavage 2 mg/kg, rats, read-out: AUClast,corr
[6] = male, Sprague-Dawley, rat, brain, po, 2 mg/kg, brain, molecular weight corrected (caffeine values multiplied by 0.956), oral gavage 2 mg/kg, rats, read-out: Cmax,corr
[7] = male, Sprague-Dawley, rat, brain, po, 2 mg/kg, brain, oral gavage 2 mg/kg, fasted male Sprague Dawley rats, read-out: AUClast
[8] = male, Sprague-Dawley, rat, brain, po, 2 mg/kg, brain, oral gavage 2 mg/kg, fasted male Sprague Dawley rats, read-out: Cmax
[9] = male, Sprague-Dawley, rat, brain, po, 2 mg/kg, oral dose 2 mg/kg, rats, read-out: AUClast in brain
[10] = rat, brain/plasma, oral gavage 2 mg/kg, fasted male Sprague Dawley rats, read-out: Ratio Brain/Plasma Cmax
[11] = rat, brain, oral gavage 2 mg/kg, fasted male Sprague Dawley rats
[12] = rat, brain, oral gavage 2 mg/kg, fasted male Sprague Dawley rats, read-out: Ratio Brain/Plasma AUClast
[13] = in words, molecular weight corrected, oral 2 mg/kg, rats

| SMILES | measurable plasma concentrations ([1]; in words, rats) | AUCinf, corr [1, 3] [ng·h/mL] | AUClast, corr [1, 3] [ng·h/mL] | AUClast ([1]; plasma, oral gavage 2 mg/kg) [ng·h/mL] | T 1/2 (terminal half life) ([1]; plasma, oral gavage 2 mg/kg) [h] | AUC(0-inf) (in vivo) [ng·h/mL] | AUC(0-t) (in vivo) [ng·h/mL] | Cmax (in vivo) [ng/mL] | Tmax (in vivo) [h] | concentration at 0.25 h (in vivo) [ng/mL] | concentration at 0.5 h (in vivo) [ng/mL] | concentration at 1 h (in vivo) [ng/mL] | concentration at 2 h (in vivo) [ng/mL] | concentration at 3 h (in vivo) [ng/mL] | concentration at 4 h (in vivo) [ng/mL] | half-life (in vivo) [h] | measurable brain concentrations ([2]; in words, rats) | concentration at 1 h [2, 4] [ng/g] | concentration at 4 h [2, 4] [ng/g] | concentration at 14 h [2, 4] [ng/g] | also measured |
| --- | --- | --- | --- | --- | --- | --- | --- | --- | --- | --- | --- | --- | --- | --- | --- | --- | --- | --- | --- | --- | --- |
| Cn1c(=O)c2c(ncn2C)n(C)c1=O [Caffeine, reference compound] | detected in all animals evaluated at each time point through 14 hours post dose | 15296 | 15296 | 16000 | 1.9 | 16000 | 16000 | 2600 | 1 | 2420 | 2410 | 2640 | 2070 | 2030 | 1820 | 1.9 | detected in all animals evaluated at each time point through 14 hours post dose | 1910 | 1210 | 62.6 | Concentration in plasma, Mean ([1]; 8 hour post dose, oral gavage 2 mg/kg): 849 ng/mL; Concentration in plasma, Mean ([1]; 10 hour post dose, oral gavage 2 mg/kg): 344 ng/mL; Concentration in plasma, Mean ([1]; 12 hour post dose, oral gavage 2 mg/kg): 171 ng/mL; Concentration in plasma, Mean ([1]; 14 hour post dose, oral gavage 2 mg/kg): 97.1 ng/mL; concentration at 8 h ([2]; male, Sprague-Dawley, rat, brain, po, 2 mg/kg, 8 hour post dose, oral gavage 2 mg/kg, fasted male Sprague-Dawley rats, n = 3/time point): 553 ng/g; AUC(0-t) [2, 5]: 10500 ng·h/mL; Cmax [2, 6]: 1820 ng/mL; AUC(0-t) [2, 7]: 11000 ng·h/mL; Cmax [2, 8]: 1900 ng/mL; AUC(0-t) [2, 9]: 11000 ng·h/mL; Kp [2, 10]: 0.73; AUC(0-inf) [2, 11]: 11000 ng·h/mL; Tmax [2, 11]: 1 h; Kp [2, 12]: 0.69 |
| [2H]C([2H])([2H])n1c(=O)c2c(ncn2C([2H])([2H])[2H])n(C([2H])([2H])[2H])c1=O [Compound D9-Caffeine, D9-caffeine] | detected in all animals evaluated at each time point through 14 hours post dose | 27000 | 22000 | 22000 | 5 | 27000 | 22000 | 2400 | 3 | 1720 | 1740 | 2090 | 2340 | 2360 | 2270 | 5 | detected in all animals evaluated at each time point through 14 hours post dose | 1540 | 1640 | 463 | plasma Cmax compared with caffeine [1, 13]: similar; systemic (AUC) exposure in plasma compared with a corresponding dose of caffeine ([1]; in words, oral 2 mg/kg, rats): higher; half-life compared with a corresponding dose of caffeine ([1]; in words, plasma, oral 2 mg/kg, rats): longer; Cmax, corr [1, 3]: 2400 ng/mL; total systemic exposure (AUCinf) higher than caffeine ([1]; plasma, molecular weight corrected, oral 2 mg/kg, rats): approximately 77%; concentration at 6 h (in vivo): 1790 ng/mL; concentration at 8 h (in vivo): 1550 ng/mL; concentration at 12 h (in vivo): 897 ng/mL; concentration at 14 h (in vivo): 682 ng/mL; total brain exposure (AUClast,corr) higher than caffeine ([2]; brain, molecular weight corrected, oral 2 mg/kg, rats): approximately 52%; brain Cmax compared with caffeine [2, 13]: slightly lower; AUC exposure in brain compared with a corresponding dose of caffeine ([2]; in words, oral 2 mg/kg, rats): higher; AUC(0-t) [2, 5]: 16000 ng·h/mL; Cmax [2, 6]: 1600 ng/mL; AUC(0-t) [2, 7]: 16000 ng·h/mL; Cmax [2, 8]: 1600 ng/mL; AUC(0-t) [2, 9]: 16000 ng·h/mL; Kp [2, 10]: 0.67; Tmax [2, 11]: 4 h; Kp [2, 12]: 0.73 |
